The source of these data is publication PMC8049054, “Systematic Assessment of Fragment Identification for Multitarget Drug Design” (Chemmedchem, 2021).

Each structure is given as a SMILES string.

For experiment [1], the system named is sEH, LTA4H, 5‐LOX, RXRα, FXR. Put plainly: DSF primary screen, statement over all five proteins. Type of experiment: binding. The conditions noted are these: 500 μM. From the text: For the primary screen of this fragment library, we employed differential scanning fluorimetry (DSF, also known as thermal shift). DSF is generally applicable to a large panel of protein targets and provides a robust, low‐cost screening technology for fragment‐based approaches. ^[20] All five proteins of our interest are soluble and were recombinantly expressed in Escherichia coli. We performed an initial fragment screen on all five targets by DSF. The use of a uniform screening method for all targets ensured consistent data and provided the opportunity to identify false positive hits which interfered with the screening technology. The conditions of the DSF assay were optimized for the desired screening and validated with reference compounds (Table S1 in the Supporting Information). Compounds causing a positive thermal shift ΔT m≥1.0 °C were considered as active. […]
The measurements were performed using a iCycler iQ™ Single -Color Real Time PCR device with a heat rate of 1 °C per min, an excitation wavelength of 490 nm and an emission wavelength of 570 nm. The first derivation calculated by MyiQ Op tical Software 1.0 was analyzed using Microsoft Office Excel 2013 by comparing the maxima. […]

The test system of experiment [2] is T1, soluble epoxide hydrolase (sEH).
T1 construct: For the expression of sEH-H and sEH-Fl transformed E.coli BL21 (DE3) cells were grown in 5052; made in house; host or cells: E. coli BL21 (DE3)
Put plainly: Differential scanning fluorimetry (DSF) screen on sEH. In kind it is binding. The conditions noted are these: 50 µM reference compound, triplicates repeated 3 times.

Experiment [3] deals with T2, RXRα.
T2 construct: MBP (N, cleaved yes); poly-N-tag, His8-tag, TEV site (N, cleaved yes); made in house; host or cells: E. coli T7-express with pGro7 (GroEL/ES)
Put plainly: Differential scanning fluorimetry (DSF) screen on RXRα. The conditions noted are these: 50 µM reference compound; measured once as triplicate; no melting curve with DMSO. Type of experiment: binding. (In general: Differential scanning fluorimetry follows unfolding on heating by fluorescence.)

The target in experiment [4] is T3, leukotriene A4 hydrolase (LTA4H) (Homo sapiens, UniProt P09960).
T3 construct: made in house; host or cells: E. coli BL21 (DE3)
T3 sequence (P09960 1-611): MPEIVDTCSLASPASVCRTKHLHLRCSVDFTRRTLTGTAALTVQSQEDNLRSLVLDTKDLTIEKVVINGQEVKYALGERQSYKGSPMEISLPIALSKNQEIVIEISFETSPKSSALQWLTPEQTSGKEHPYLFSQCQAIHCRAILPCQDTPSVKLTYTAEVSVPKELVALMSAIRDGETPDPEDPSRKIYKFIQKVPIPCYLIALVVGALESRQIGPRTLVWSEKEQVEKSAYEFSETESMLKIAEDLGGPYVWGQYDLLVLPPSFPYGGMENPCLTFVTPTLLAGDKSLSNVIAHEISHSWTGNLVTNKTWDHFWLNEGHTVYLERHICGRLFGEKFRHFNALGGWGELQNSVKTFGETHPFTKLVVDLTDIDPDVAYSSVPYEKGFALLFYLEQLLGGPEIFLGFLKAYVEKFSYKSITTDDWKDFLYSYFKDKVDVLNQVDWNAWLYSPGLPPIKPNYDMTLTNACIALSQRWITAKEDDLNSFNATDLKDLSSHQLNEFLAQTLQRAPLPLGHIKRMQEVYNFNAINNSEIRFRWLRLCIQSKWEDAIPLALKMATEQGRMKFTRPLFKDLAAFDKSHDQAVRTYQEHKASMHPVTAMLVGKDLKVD
Put plainly: Differential scanning fluorimetry (DSF) screen on LTA4H. Type of experiment: binding. The conditions noted are these: 50 µM reference compound, triplicates repeated 3 times.

Experiment [5] addresses T4, 5‐lipoxygenase (5‐LOX) (Homo sapiens, UniProt P09917).
T4 construct: made in house; host or cells: E. coli BL21 (DE3)
T4 sequence (P09917 1-674): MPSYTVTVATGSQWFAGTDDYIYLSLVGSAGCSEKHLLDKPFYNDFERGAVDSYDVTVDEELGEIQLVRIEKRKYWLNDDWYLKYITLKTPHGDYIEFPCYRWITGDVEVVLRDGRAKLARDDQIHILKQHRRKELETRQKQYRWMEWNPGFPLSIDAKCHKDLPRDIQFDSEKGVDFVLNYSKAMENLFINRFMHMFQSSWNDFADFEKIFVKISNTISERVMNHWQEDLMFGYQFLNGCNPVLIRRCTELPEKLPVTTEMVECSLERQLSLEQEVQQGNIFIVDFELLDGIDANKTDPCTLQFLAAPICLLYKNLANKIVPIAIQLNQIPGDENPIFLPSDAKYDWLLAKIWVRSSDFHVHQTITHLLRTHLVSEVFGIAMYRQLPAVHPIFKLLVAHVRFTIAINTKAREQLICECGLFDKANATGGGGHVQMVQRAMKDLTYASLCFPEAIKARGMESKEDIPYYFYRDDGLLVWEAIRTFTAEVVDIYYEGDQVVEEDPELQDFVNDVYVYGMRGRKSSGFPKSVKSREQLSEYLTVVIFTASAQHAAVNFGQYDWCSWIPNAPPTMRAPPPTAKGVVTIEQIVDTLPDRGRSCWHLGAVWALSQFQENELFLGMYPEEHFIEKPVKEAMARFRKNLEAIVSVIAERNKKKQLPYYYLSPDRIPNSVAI
Nature of the experiment: 5-LOX activity assay (HPLC detection of product formation). As to conditions: mean±standard deviation of three independent experiments. Type of experiment: biochemical. The procedure: (§1) For hit validation, we employed secondary assays with orthogonal readouts to confirm fragment activities. Biochemical activity assays were chosen for the enzymes sEH, LTA4H, and 5‐LOX. […] RXRα and FXR modulation was assessed in cell‐based hybrid reporter gene assays. All ten compounds were tested at a single concentration of 500 μM in the sEH and LTA4H activity assays and with a concentration of 100 μM on 5‐LOX, RXRα, and FXR. Fragments showing an inhibition greater than 50 % (sEH‐H and LTA4H) or greater than 70 % (5‐LOX) as well as the hits determined in the DSF experiments were further characterized in full concentration‐response curves between 0.1 and 1000 μM. […] As alternative cell‐free assay we employed isothermal titration calorimetry (ITC) to determine binding affinity of the fragments towards the LBDs of both nuclear receptors. ITC was performed with a protein concentration of 50 μM and compound concentrations of 250 μM.
(§2) The 10 fragments showing dual activity in the DSF experiments were validated by functional assay screening with a fixed concentration of 500 µM in case of sEH-H and LTA4H, 100 µM in case of 5-LOX and 30 µM, 10 µM and 5 µM in case of FXR and […]
(§3) % (5-LOX) as well as the hits determined in the DSF experiments were further measured with concentrations between 1000 µM and 0.1 µM (sEH-H and LTA4H) and between 300 µM and 1 µM (5-LOX). The sEH and LTA4H activity assays were performed as triplicate and repeated 3 times. The 5-LOX activity assay was performed with one point per concentration and repeated 3 times Raw data was first analyzed in Microsoft Office Excel (2013), before IC50 curves were plotted and further analyzed using GraphPad Prism 7 and GraphPad Prism 8 for the shown graphs .
The eight approved drugs were measured in the orthogonal assay systems analogous to the fragments. […]
For the 5-LOX they […]
were measured as single point measurement in three different experiments with concentrations between 300 µM and 1 µM. For […]
Raw data was processed according to the fragments. […]

Experiment [6] has as its target T5, soluble epoxide hydrolase (sEH) (Homo sapiens, UniProt P34913).
T5 construct: made in house; host or cells: E. coli BL21 (DE3)
T5 sequence (P34913 1-555): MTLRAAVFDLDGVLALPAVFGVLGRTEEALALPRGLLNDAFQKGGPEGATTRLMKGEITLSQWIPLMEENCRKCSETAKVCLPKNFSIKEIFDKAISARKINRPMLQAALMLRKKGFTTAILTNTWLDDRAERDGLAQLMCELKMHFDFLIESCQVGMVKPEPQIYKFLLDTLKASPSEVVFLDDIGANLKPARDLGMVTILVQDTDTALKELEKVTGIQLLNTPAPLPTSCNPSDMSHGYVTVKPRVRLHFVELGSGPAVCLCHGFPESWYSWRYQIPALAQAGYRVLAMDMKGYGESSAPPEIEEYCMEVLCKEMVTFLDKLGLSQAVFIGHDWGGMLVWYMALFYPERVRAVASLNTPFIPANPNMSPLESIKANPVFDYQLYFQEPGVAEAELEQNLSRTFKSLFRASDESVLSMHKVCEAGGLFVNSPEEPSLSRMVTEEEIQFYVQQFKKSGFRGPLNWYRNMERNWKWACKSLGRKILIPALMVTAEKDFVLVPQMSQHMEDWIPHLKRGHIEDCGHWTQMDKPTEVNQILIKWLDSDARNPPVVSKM
Put plainly: sEH-H activity assay (fluorogenic substrate PHOME). The conditions noted are these: approved drug, 1-1000 µM. Type of experiment: biochemical. The procedure:
as §1, §2, §3
The eight approved drugs were measured in the orthogonal assay systems analogous to the fragments. The approved drugs were […]
For the sEH-H and LTA4H, they were measured as triplicate in concentrations between 1000 µM and 1 µM and each measurement was repeated three times. For the 5-LOX they were measured as single point measurement in three different experiments with concentrations between 300 µM and 1 µM. For […]
Raw data was processed according to the fragments.
The sEH-H activity assay was performed adapted from Hahn et al.5 and Lukin et al.6. In short 1 µl of compound dilution in DMSO or pure DMSO (for the positive and negative control) was placed in a black 96-well plate (Thermo Scientific™ Nunc™ F96 MicroWell™ Black Polystyrene Plate) and then 89 µl of protein-mix or buffer mix (without protein as negative control) were added and the mixture was incubated for 30 min at room temperature. 10 µl of 0.6 mM 3-phenyl-cyano(6-methoxy-2-naphthalenyl)methylester-2-oxiraneacetic acid (PHOME) were added to every well. The Plate was measured every minute for 45 min. Final concentration per well was 3 nM sEH-Fl, 0.001 % Triton X-100, 25 mM Bis-tris, 0.1 mg/ml BSA, pH = 7.0, 1.6% DMSO […]

Experiment [7] addresses T4, 5‐lipoxygenase (5‐LOX). Put plainly: Differential scanning fluorimetry (DSF) screen on 5-LOX. Type of experiment: binding. As to conditions: 100 µM reference compound; measured once as triplicate.

Regarding `O=C(NCc1cccnc1)c1ccc(O)cc1` [Compound 22], in experiment [1], the “activity in the DSF screen” value is “no activity”.
On to `O=C(Nc1ccc(I)cc1)NC1CCCCC1` [CIU], for which, in experiment [2], the “TM(ref) sEH-H” value turned out to be 62.2 ± 0.4 °C. Further, in experiment [2] (in °C), the “ΔTM sEH-H” value is listed as 5.6 ± 0.5.
In the case of `CC1(C)CCC(C)(C)c2cc(C3(c4ccc(C(=O)O)cc4)OCCO3)ccc21` [SR11237], the “TM(ref) RXRα” value in experiment [3] came to 59.0 ± 0.0 °C.
Consider `Cc1nc2ccccc2[nH]1` [Compound 24], for which, in experiment [1], the “activity in the DSF screen” value is listed as “no activity”.
On to `CC(C)C[C@H](NC(=O)[C@@H](O)[C@H](N)Cc1ccccc1)C(=O)O` [bestatin], for which, in experiment [4], the “TM(ref) LTA4H” value is 60.7 ± 0.9 °C. Also, the “ΔTM LTA4H” value in experiment [4] (in °C) was 5.9 ± 0.7.
As a reminder, the IC50 is the concentration that gives 50% inhibition. On to `CC(C)COCC(CN(Cc1ccccc1)c1ccccc1)N1CCCC1` (stereo not shown) [Compound 15, bepridil, reference compound], for which the IC50 in experiment [5] was 3.2 µM. The “activity towards sEH” value in experiment [6] was “completely loosing activity”.
In the case of `C[C@H](C#Cc1ccc(Cc2ccc(F)cc2)s1)N(O)C(N)=O` [atreleuton], the “TM(ref) 5-LOX” value in experiment [7] came out at 63.7 ± 0.6 °C.
